Laboratory results as given in patent US7265118B2, “Regulation of substrate activity” (Point Therapeutics, Inc., priority 1998, dated 2007).

Assay: Conformational equilibrium of cyclic and open chain forms in aqueous solution
Type: physicochemical
Details: at equilibrium at pH 7.0
From the text: The open, active, inhibitory chain species is favored at low pH while the cyclized structure is favored at neutral pH. The reaction is fully reversible: the open chain becomes predominant at low pH. The open chain to cyclic species reaction involves a trans to cis isomerization of the proline and the formation of a new N—B bond. […] Cyclization liberates one equivalent of H+ thereby explaining the requirement for base in the cyclization reaction and acid in the opening reaction. […] G. Gutheil and W. W. Bachovchin, Separation of L-Pro-DL-boroPro into Its Component Diastereomers and Kinetic Analysis of Their Inhibition of Dipeptidyl Peptidase IV. A New Method for the Analysis of Slow, Tight-Binding Inhibition, Biochemistry 32, 8723-8731 (1993)).

| Structure (SMILES) | fraction existing as the open chain, inhibitory species |
| --- | --- |
| O=C(C1CCCN1)N1CCCC1B(O)O (centres unmarked) [Pro-boroPro] | less than 1% |
| CC(C)C(N)C(=O)N1CCCC1B(O)O (centres unmarked) [Val-boroPro] | less than 0.1% |
